# Assay results as given in patent US20230219957A1, “SMALL MOLECULE CB002-ANALOGES RESTORE THE P53 PATHWAY AND TARGET S-PHASE CHECKPOINT” (Brown University, priority 2020, published 2023).
# What was measured:
# Format in all cases: cell-based, human
# [1] = system: isogenic HCT116 cell line panel; experiment: Cell-Titer glow cytotoxicity, potency comparison across the panel; conditions: IC50 values, independently of HCT116 p53-status
# Procedure: CellTiter-Glo® luminescent cell viability assay. Cells were seeded in 96-well plates at a density of 5×10^3 cells per well. 20 μL of CellTiter-Glo® Reagent was added directly to the wells, following the manufacturers protocol. The bioluminescence signal was determined using an IVIS imaging system, optionally at a period of 48-72 hours after treatment.
# CB002-analog #4 is a potent anti-tumor agent in vitro and in vivo. The inventors focused on lead CB002-analog #4 and investigated its therapeutic index in vitro and in vivo. The inventors treated an isogenic HCT116 cell line panel with 100 μM CB002 or 25 μM CB002-analog #4 and established IC50 values by the Cell-Titer glow cytotoxicity assay. Across this panel, CB002-analog #4 has a 20-fold to 30-fold range in IC50 values, independently of the HCT116 p53-status.
# SW480 tumor cells = experiment: Apoptosis markers (cleaved PARP immunoblot, Cyt-C immunofluorescence)
# Procedure: Knockdown expression of p73, DR5, ATG5, or FADD using siRNA. A total of 1×10^5 cells/well were plated per well in a 12-well plate in medium with 10% FBS without antibiotic. Forward transfection of p73 siRNA (s14319, Ambion®, Ambion Inc., Austin, Tex., USA), DR5 (sc-40237, Santa Cruz Biotechnology), atg5 (137766, Ambion®, Ambion Inc., Austin, Tex., USA), or FADD (S16706, Ambion®, Ambion Inc., Austin, Tex., USA) was performed using the Lipofectamine® RNAiMAX Transfection Reagent (Life Technologies) and incubated for forty-eight hours before treatment, e.g., before drug treatments.
# Immunoblotting (additional method). After treatment, floating cells were collected, and adherent cells were trypsinized, washed with phosphate-buffered saline, and lysed with RIPA buffer (Sigma-Aldrich, St. Louis, Mo., USA) for thirty minutes to one hour at 4° C. Protein lysates were pelleted. The supernatant was collected. Total protein per sample was determined using a Pierce™ BCA Protein Assay Kit (Thermo Fisher Scientific, Waltham, Mass., USA). Proteins were denatured using 1× NuPAGE® LDS sample buffer (Thermo Fisher Scientific, Waltham, Mass., USA) and reduced with 2-mercaptoethanol (Sigma-Aldrich, St. Louis, Mo., USA). Protein lysates were boiled for fifteen min at 95° C. After protein normalization, samples were loaded into NuPAGE™ Novex™ 4-12% Bis-Tris Protein Gels (Thermo Fisher Scientific, Waltham, Mass., USA). Gel electrophoresis was performed with NuPAGE™ MES SDS Running Buffer. […] Signal was detected using a chemiluminescent detection kit, followed by autoradiography. […]
# Immunohistochemistry. […] Organoid viability imaging was determined by CellTrace™ Calcein Green (#C34852, Thermo Fisher Scientific, Waltham, Mass., USA), Ethidium Homodimer-1 (#E1169, Thermo Fisher Scientific, Waltham, Mass., USA), Ki67 incubated at 37° C. for one hour then washed with phosphate-buffered saline and imaged. […]
# SW480 cells = experiment: Clonogenic (colony formation) assay; conditions: SW480, versus CB002
# Procedure: Colony formation assay. Cells were seeded in 6-well plates at a density of 500 cells per well. Cells were treated with CB002 small molecules for twenty-four hours. Then, cells were cultured in complete drug-free media for fifteen days. During the fifteen days, the media was changed every two-three days. At the end of the two weeks, the media was removed. Wells were washed twice with Dulbecco's phosphate-buffered saline (PBS). The colonies were fixed and stained with 10% methanol and 0.25% crystal violet (Sigma-Aldrich, St. Louis, Mo., USA) for thirty minutes. Wells were then carefully washed with distilled, deionized water and allowed to dry.
smiles,measurement,setting,value
Cn1c(=O)c2[nH]c(Nc3cccc(C(F)(F)F)c3)nc2n(C)c1=O [CB002-analog #4],potency relative to CB002,[1],20-30 times
same,cleaved-PARP,SW480 tumor cells; SW480,increases cleaved-PARP
same,cytochrome C release from the mitochondria to the cytosol,"SW480 tumor cells; SW480, forty-eight hours",cytochrome C release from the mitochondria to the cytosol
same,PARP cleavage under p73 knockdown,"SW480 tumor cells; SW480, p73 siRNA",PARP cleavage occurred despite effective p73 knockdown
same,cytotoxicity by clonogenic assay,SW480 cells,more cytotoxic in vitro than CB002
